For assay [1], the target named is T1, NLuc-hH2R (Homo sapiens, UniProt P25021).
T1 construct: membrane signal peptide of the murine 5HT3A receptor (N); expressed in transfected cells
Description: NanoBRET saturation binding assay. Here is the method: KG, Wertheim, Germany). The cells were then incubated at 37 °C in a humidified atmosphere (no additional CO2) overnight. […] After 60 min incubation time at 27 °C, 10 μL of the substrate furimazine, which was diluted according to manufacturer's protocol beforehand, were added. After 5 min of equilibration time at 27 °C, the measurement was started. […] After addition of the diluted substrate, the plate was placed inside the reader for 5 min to equilibrate. […] Dissociation experiments were conducted in wells, which have been preincubated with 8 as described above for association experiments. […] All measurements were performed on a TECAN InfiniteLumi plate reader (TECAN, Grödig, Austria) at 27 °C using the Blue2 NB (460 nm ± 35 nm, bandpass) and the Red NB (> 610 nm, longpass) filter combination with an integration time of 100 ms. For the kinetic experiments, integration time was increased to 500 ms for both channels to reduce noise. BRET ratios were calculated by dividing the acceptor emission (red NB) by the donor luminescence (Blue2 NB). For all BRET binding experiments, specific binding was calculated by subtracting non-specific binding from total binding yielding the “corrected BRET ratio”. For saturation binding experiments, total and non-specific binding were fitted simultaneously using the “one-site total and nonspecific binding” fit. Specific binding was fitted accordingly applying the “one-site specific binding” fit. […] The normalized competition binding curves were then fitted with a four-parameter logistic fit yielding pIC50-values. These were transformed into pKi-values using the Cheng-Prusoff equation[38].

The target in assay [2] is T1, NLuc-hH2R. Description: Real-time NanoBRET kinetic binding experiments. Here is the method: The cell line stably expressing the NLuc-hH2R construct was detached from the cell culture dishes after reaching ~ 80% confluency by treatment with trypsin/EDTA (0.05%/0.2%, for 2 min at 37 °C) and was centrifuged (600×g, 5 min). The cell pellet was then resuspended in Leibovitz’ L-15 medium (L-15), supplemented with 5% FCS + 10 mM HEPES, and 1.0 × 10^5 cells/well were seeded in 70 µL (saturation and competition binding) or 80 µL (kinetic experiments) of assay medium into white 96-well cell-Grade™ plates (Brand GmbH & Co. KG, Wertheim, Germany). The cells were then incubated at 37 °C in a humidified atmosphere (no additional CO2) overnight. For saturation binding experiments, serial dilutions (tenfold concentrated) of the fluorescent ligands (8–10) and famotidine (4, 300-fold excess over the respective concentration of fluorescent ligand, non-specific binding) were prepared in dilution buffer (L-15 + 2% BSA + 10 mM HEPES). 10 µL of the fluorescent ligand dilution and 10 µL of L-15 (total binding) or the dilution of 4 (non-specific binding) were added to the cells. After 60 min incubation time at 27 °C, 10 µL of the substrate furimazine, which was diluted according to manufacturer’s protocol beforehand, were added. After 5 min of equilibration time at 27 °C, the measurement was started. Competition binding experiments were performed as described above using one fixed concentration of fluorescent ligand 8 (c = 50 nM) and varying concentrations of the competitors 1–4, 11, 12, that were added at the same time. Kinetic measurements were performed as follows: 10 µL of L-15 (for total binding) or 4 (300-fold excess, c = 15 µM, non-specific binding) were added to the cells. After addition of the diluted substrate, the plate was placed inside the reader for 5 min to equilibrate. To start association 50 µL of a threefold concentrated solution of the fluorescent ligand 8 (cfinal = 50 nM) were added to the adherent cells and the plate was measured for 60 min. Dissociation experiments were conducted in wells, which have been preincubated with 8 as described above for association experiments. To initiate dissociation, 50 µL of a fourfold concentrated solution of 4 (300-fold excess, cfinal = 15 µM) were added to the cells and the measurement was performed for 4 h. All measurements were performed on a TECAN InfiniteLumi plate reader (TECAN, Grödig, Austria) at 27 °C using the Blue2 NB (460 nm ± 35 nm, bandpass) and the Red NB (> 610 nm, longpass) filter combination with an integration time of 100 ms. For the kinetic experiments, integration time was increased to 500 ms for both channels to reduce noise. BRET ratios were calculated by dividing the acceptor emission (red NB) by the donor luminescence (Blue2 NB).
For kinetic experiments, association experiments were fitted with the “one-phase association” fit yielding kobs, whereas the dissociation experiments were fitted assuming a “one-phase decay” model resulting in koff. The association rate constant kon was calculated using the following equation: kon = (kobs − koff)/c(ligand); c(ligand) = 50 nM. Dissociation half-life t1/2 was calculated applying the following formula: t1/2 = ln(2)/koff.The kinetic equilibrium dissociation constant Kd(kin) was calculated as follows: Kd(kin) = koff/kon. The errors for kon, t1/2 and Kd(kin) were calculated according to the Gaussian law of error propagation. All experimental data were analyzed using Prism 8 software (GraphPad, San Diego, CA, USA).

Results on one compound are retold here after publication PMC7414126 (Scientific Reports, 2020).

“And” between values parts separate entries of the source, which are not always exact repeats. Identical values can stand only once.

T1 sequence (P25021 whole entry): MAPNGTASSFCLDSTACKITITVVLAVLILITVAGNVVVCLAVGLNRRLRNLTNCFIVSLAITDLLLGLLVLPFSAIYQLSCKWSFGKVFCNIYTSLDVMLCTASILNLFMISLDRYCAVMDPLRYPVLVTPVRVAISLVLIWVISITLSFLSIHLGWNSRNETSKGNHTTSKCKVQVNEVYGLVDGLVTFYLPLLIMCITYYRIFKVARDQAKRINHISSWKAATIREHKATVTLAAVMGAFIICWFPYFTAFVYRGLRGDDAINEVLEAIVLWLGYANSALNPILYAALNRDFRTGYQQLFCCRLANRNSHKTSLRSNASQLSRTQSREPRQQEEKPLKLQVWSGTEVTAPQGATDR

On to `Cc1cc(/C=C/c2cc3c4c(c2)CCCN4CCC3)cc(C)[n+]1CCCCNc1c(NCCCOc2cccc(CN3CCCCC3)c2)c(=O)c1=O` [Compound 8, (E)-1-(4-((3,4-Dioxo-2-((3-(3-(piperidin-1-ylmethyl)phenoxy)propyl)amino)cyclobut-1-en-1-yl)amino)butyl)-2,6-dimethyl-4-(2-(2,3,6,7-tetrahydro-1H,5H-pyrido[3,2,1-ij]quinolin-9-yl)vinyl)pyridin-1-ium], for which the Kd is 29.4 nM in assay [1] (representative NanoBRET saturation isotherm, result from single experiment, HEK293T NLuc-hH2R, read-out: Kd* (single experiment)); 44.7 nM in assay [1] (saturation binding, live HEK293T cells stably expressing NLuc-hH2R, mean ± SEM, read-out: pKd (NanoBRET) (converted)); 1.3 ± 0.16 nM in assay [2] (Kd(kin) = koff/kon). The “Time to full association (fully bound to the receptor)” value in assay [2] (50 nM of 8) is on record as “approximately 30 min”. In assay [2] (300-fold excess famotidine (15 µM), after 60 min preincubation with 50 nM 8), the “Amount of ligand displaced within 240 min” value is 35–40%. Besides, the kobs in assay [2] (association of 8, c = 50 nM, mean ± SEM, four experiments) came out at 0.093 ± 0.009 min⁻¹. Moreover, the koff in assay [2] (dissociation started with famotidine 15 µM after 60 min preincubation with 50 nM 8) is 3.83e-05 s⁻¹. Moreover, the kon in assay [2] (kon = (kobs − koff)/c(ligand), c = 50 nM, read-out: kon (association rate constant) (converted)) is 30000 M⁻¹ s⁻¹. In addition, in assay [2] (t1/2 = ln(2)/koff), the “Dissociation half-life t1/2” value was 5 h and 5.007 ± 0.3317 h.
